These results are taken from patent publication US20260265265A1, “NOVEL BENZIMIDAZOLONE DERIVATIVE COMPOUND AS AUTOTAXIN INHIBITOR” (LG CHEM, LTD., priority 2023, published 2026).

In this test the target is T1, Recombinant Human ENPP-2/Autotaxin (Homo sapiens, UniProt Q13822).
T1 construct: purchased R&D systems 5255-EN
The test can be described thus: LysoPLD activity measurement (autotaxin enzyme inhibition, choline release, TOOS reagent). It is filed as biochemical. The following applies: LysoPLD inhibitory activity; substrate 14:0 LysoPC; absorbance at 555 nm. A digest of the protocol: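 Autotaxin lysoPLD activity was read as choline released from 14:0 LysoPC, detected by TOOS reagent absorbance. Compound was preincubated 30 min, then substrate diluted to 300 μM was added and the reaction ran 90 minutes at 37° C. Controls contained 1% DMSO.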

A word on the IC50: it is the concentration at which inhibition is half-maximal. `O=C(O)c1cccc(Cn2c(=O)n(-c3ccc(C(=O)N4CCOCC4)cc3)c3cc(Cl)ccc32)c1` [Example 44, 3-((5-chloro-3-(4-(morpholine-4-carbonyl)phenyl)-2-oxo-2,3-dihydro-1H-benzo[d]imidazol-1-yl)methyl)benzoic acid]: the IC50 is 10 to 100 nM.

For `O=C(O)c1cccc(Cn2c(=O)n(-c3ccc(N4CCOCC4)cc3)c3c(F)c(Cl)ccc32)c1` [Example 24, 3-((5-chloro-4-fluoro-3-(4-morpholinophenyl)-2-oxo-2,3-dihydro-1H-benzo[d]imidazol-1-yl)methyl)benzoic acid], the IC50 lay in the range of 10 to 100 nM.

On to `O=C(O)c1cccc(Cn2c(=O)n(-c3ccc(C4CCN(C(=O)C5CCC5)CC4)cc3)c3c(F)c(Cl)ccc32)c1F` [Example 152, 3-((5-chloro-3-(4-(1-(cyclobutanecarbonyl)piperidin-4-yl)phenyl)-4-fluoro-2-oxo-2,3-dihydro-1H-benzo[d]imidazol-1-yl)methyl)-2-fluorobenzoic acid], for which the IC50 is 10 to 100 nM.

On to `O=C(O)c1cccc(C2(n3c(=O)n(-c4ccc(C(=O)N5CC6(CCOCC6)C5)cc4)c4cc(Cl)ccc43)CC2)c1` [Example 93, 3-(1-(3-(4-(7-oxa-2-azaspiro[3.5]nonane-2-carbonyl)phenyl)-5-chloro-2-oxo-2,3-dihydro-1H-benzo[d]imidazol-1-yl)cyclopropyl)benzoic acid], for which the IC50 was under 10 nM.

Take `O=C(O)c1cccc(C2(n3c(=O)n(-c4ccc(-c5nnc(C6CCC(F)(F)CC6)o5)cc4)c4cc(Cl)ccc43)CC2)c1` [Example 138, 3-(1-(5-chloro-3-(4-(5-(4,4-difluorocyclohexyl)-1,3,4-oxadiazol-2-yl)phenyl)-2-oxo-2,3-dihydro-1H-benzo[d]imidazol-1-yl)cyclopropyl)benzoic acid]: the IC50 was under 10 nM.

Regarding `O=C(O)c1cccc(Cn2c(=O)n(-c3ccc(N4CCOCC4)cc3)c3cc(Cl)cnc32)c1` [Example 162, 3-((6-chloro-1-(4-morpholinophenyl)-2-oxo-1,2-dihydro-3H-imidazo[4,5-b]pyridin-3-yl)methyl)benzoic acid], the IC50 fell in the range of 100 to 1000 nM.

With `O=C(O)c1cccc(Cn2c(=O)n(-c3ccc(N4CCN(C(=O)C5CC5)CC4)cc3)c3cc(Cl)ccc32)c1F` [Example 140, 3-((5-chloro-3-(4-(4-(cyclopropanecarbonyl)piperazin-1-yl)phenyl)-2-oxo-2,3-dihydro-1H-benzo[d]imidazol-1-yl)methyl)-2-fluorobenzoic acid], the half-inhibitory concentration (IC50) was 10 to 100 nM.

As to `O=C(O)c1cccc(Cn2c(=O)n(-c3ccc(C4CCOCC4)cc3)c3cc(Cl)ccc32)c1` [Example 103, 3-((5-chloro-2-oxo-3-(4-(tetrahydro-2H-pyran-4-yl)phenyl)-2,3-dihydro-1H-benzo[d]imidazol-1-yl)methyl)benzoic acid], the IC50 is 10 to 100 nM.

With `O=C(O)c1cccc(C2(n3c(=O)n(-c4ccc(C(=O)N5CCCC5)cc4)c4cc(Cl)ccc43)CC2)c1` [Example 63, 3-(1-(5-chloro-2-oxo-3-(4-(pyrrolidine-1-carbonyl)phenyl)-2,3-dihydro-1H-benzo[d]imidazol-1-yl)cyclopropyl)benzoic acid], the IC50 was under 10 nM.

Consider `CS(=O)(=O)c1ccc(-n2c(=O)n(C3(c4cccc(C(=O)O)c4)CC3)c3ncc(Cl)cc32)cc1` [Example 227, 3-(1-(6-chloro-1-(4-(methylsulfonyl)phenyl)-2-oxo-1,2-dihydro-3H-imidazo[4,5-b]pyridin-3-yl)cyclopropyl)benzoic acid], for which the IC50 lay within 10 to 100 nM.

Take `O=C(O)c1cccc(Cn2c(=O)n(-c3ccc(N4CCOCC4)nc3)c3cc(Cl)ccc32)c1` [Example 78, 3-((5-chloro-3-(6-morpholinopyridin-3-yl)-2-oxo-2,3-dihydro-1H-benzo[d]imidazol-1-yl)methyl)benzoic acid]: the IC50 lay in the range of 10 to 100 nM.
